Experiments:
[1] = test system: VEGF-induced HUVEC growth; test: VEGF-induced HUVEC growth reaction evaluation system (cell growth inhibitory action test); assay type: cell-based; conditions: Homo sapiens, 72 h, 20 μg/ml test compound solution added 5 μl per well (100 μl), VEGF solution 400 ng/ml 5 μl per well, three days, absorbance at 450 nm, read-out: Cell growth inhibition rate (%)
B16 cells = test: Tumor growth inhibitory action test using mouse cancer model (B16 cells); assay type: in vivo; conditions: po, 240 h; C57BL/6 mouse, B16 cells intradermally, 100 mg/kg/day orally once a day, ten days after injection, average of nine mice; read-out: Tumor tissue weight inhibition rate (%)
Procedure: Tumor proliferation inhibitory action tests of the present compounds were carried out using a mouse cancer model, which is one of widely-used methods of evaluating in vivo anticancer effects of drugs.
As one of widely-used methods of evaluating anticancer effects of drugs, a tumor growth inhibitory action test using mouse cancer models was reported in Cancer Res., 59, 5209-5218(1999). According to the method described in the above-mentioned literature, tumor growth inhibitory action tests of the present compounds were carried out, their tumor tissue weight inhibition rates were calculated, and anticancer effects of the present compounds were evaluated using the obtained rates as indexes.
A 1% aqueous methyl cellulose solution was added to each test compound to suspend it with a sonicator thereby to prepare a 10 mg/ml test compound suspension.
Physiological saline was added to B16 cells to prepare a 3.3×10^7 cells/ml B16 cell suspension.
Calculation of Tumor Tissue Weight Inhibition Rate
Tumor tissue weight inhibition rates (the average of nine mice per group), which are indexes of anticancer effects were calculated, from the following calculation equation.

[2] = test system: rat adjuvant arthritis model; test: Paw edema inhibitory action test using rat adjuvant arthritis model; assay type: in vivo; conditions: po, 504 h; Lewis rat, adjuvant-untreated (secondary inflammation) paw, 10 mg/kg/day orally once a day, 21 days after, average of eight rats; read-out: Paw edema inhibition rate (%)
Procedure: Paw edema inhibitory action tests of the present compounds were carried out using a rat adjuvant arthritis model, which is one of widely-used methods of evaluating in vivo antiarthritis effects of drugs.
As one of widely-used methods of evaluating antiarthritic effects of drugs, a paw edema inhibitory action test using rat adjuvant arthritis models is known. Paw edema inhibitory action tests of the present compounds were carried out, their paw edema inhibition rates were calculated, and antiarthritic effects of the present compounds were evaluated using the obtained rates as indexes.
A 1% aqueous methyl cellulose solution was added to each test compound to suspend it thereby to prepare a 2 mg/ml test compound suspension.
Liquid paraffin was added to Mycobacterium-butyricum to suspend it to prepare 6 mg/ml adjuvant.
Each paw edema inhibition rate of paw edema in an adjuvant-untreated paw (secondary inflammation paw) in each test compound administration group was calculated to paw edema in a secondary inflammation paw in a control group, and antiarthritic effects of the present compounds were evaluated using the obtained rates as indexes.
Paw edema rates were calculated from the following calculation equation 1, and then paw edema inhibition rates (the average of eight rats per group), which are indexes of the antiarthritic effects, were calculated from the calculation equation 2.

[3] = test system: rat choroidal neovascularization model; test: Neovascularization incidence test using laser-induced rat choroidal neovascularization model; assay type: in vivo; conditions: po, 168 h; Brown Norway rat, krypton laser photocoagulation, 30 mg/kg/day orally once a day for seven days, ratio to vehicle administration group, average of three to four individuals and six to eight eyes; read-out: Ratio of neovascularization incidence rate (% of Control)
Procedure: Neovascularization incidence tests of the present compounds were carried out using a rat choroidal neovascularization model, which is one of widely-used methods of evaluating in vivo choroidal neovascularization inhibitory effects of drugs.
As one of widely-used methods of evaluating choroidal neovascularization inhibitory effects of drugs, a neovascularization incidence test using rat choroidal neovascularization models was reported in Graefe's Arch. Cli. Exp. Ophthalmol., 235, 313-319(1997). According to the method described in the above-mentioned literature, neovascularization incidence tests of the present compounds were carried out, ratios of neovascularization incidence rates of present compounds administration groups were calculated to a neovascularization incidence rate of vehicle administration group (control group), and choroidal neovascularization inhibitory effects of the present compounds were evaluated using the obtained ratios as indexes.
A 1% aqueous methyl cellulose solution was added to each test compound to suspend it thereby to prepare a 6 mg/10 ml test compound suspension.
• 1) A 7:1 mixed solution (1 ml/kg) of a 5% ketamine hydrochloride injection and a 2% xylazine hydrochloride injection was administered intramuscularly to rats (Brown Norway, male, eight weeks old, weight: 200 to 250 g) to anesthetize them systemically. • 2) A tropicamide-phenylephrine hydrochloride ophthalmic solution (trade name: Mydrin-P) was instilled into eyes to cause mydriasis, and then photocoagulation was performed in a Bruch's membrane of each rat using a krypton laser photocoagulation apparatus. The laser irradiation was carried out at eight spots per eye sparsely avoiding thick retinal vessels in a posterior section of ocular fundus and focusing on the retinal deep site. Photocoagulation conditions were adjusted to 100 μm of spot size, […] of output and 0.1 sec. of coagulation time. • 3) After the photocoagulation, the ocular fundus was photographed to confirm photocoagulation (laser irradiation) sites. […] Method of Evaluation • 1) Seven days after the photocoagulation, 0.1 ml of a 10% aqueous fluorescein solution was injected into a tail vein of the rat, and fluorescein fundus photography was performed. • 2) Next, in the fluorescein fundus photography, a spot where fluorescence leak was not observed was judged as negative, and a spot where fluorescence leak was observed was judged as positive. Photocoagulation sites where a little fluorescence leak was observed were judged as positive when two sites are present. • 3) Neovascularization incidence rates were calculated according to the calculation equation 1. Ratios of the neovascularization incidence rates of the test compound administration groups to that of the vehicle administration group were calculated according to the calculation equation 2 from neovascularization incidence rates of respective administration groups.
The values are the average of three to four individuals and six to eight eyes.

Compound	inhibition at 20 µg/mL (stock) [1] [%]	inhibition in vivo at 100 mg/kg/day (B16 cells) [%]	inhibition in vivo at 10 mg/kg/day [2] [%]	response vs control in vivo at 30 mg/kg/day [3] [%]
O=C(Nc1cc2ccccc2cn1)c1cccnc1SCc1ccncc1 [1-22, N-(3-Isoquinolyl)-2-(4-pyridylmethylthio)pyridine-3-carboxamide]	100	45	27	–
Cc1cc(C)cc(NC(=O)c2cccnc2SCc2cc[n+]([O-])cc2)c1 [4-4, N-(3,5-Dimethylphenyl)-2-(1-oxopyridin-4-ylmethylthio)pyridine-3-carboxamide]	100	77	21	26
O=C(Nc1ccc2c(c1)CCC2)c1cccnc1SCc1ccncc1 [1-136, N-(5-Indanyl)-2-(4-pyridylmethylthio)pyridine-3-carboxamide]	100	53	–	38
O=C(Nc1ccc2ncccc2c1)c1cccnc1SCc1ccncc1 [1-21, 2-(4-Pyridylmethylthio)-N-(6-quinolyl)pyridine-3-carboxamide]	99	65	–	15
O=C(Nc1ccc(SC(F)(F)F)cc1)c1cccnc1SCc1ccncc1 [1-158, 2-(4-Pyridylmethylthio)-N-(4-trifluoromethylthiophenyl)pyridine-3-carboxamide]	100	76	22	–
O=C(Nc1ccc2[nH]ncc2c1)c1cccnc1SCc1ccncc1 [1-23, N-(Indazol-5-yl)-2-(4-pyridylmethylthio)pyridine-3-carboxamide]	100	57	–	26
O=C(Nc1ccc(OC(F)(F)F)c(Cl)c1)c1cccnc1SCc1ccncc1 [1-137, N-(3-Chloro-4-trifluoromethoxyphenyl)-2-(4-pyridylmethylthio)pyridine-3-carboxamide]	100	66	39	65

— US8518973B2, “Compounds having 4-pyridylalkylthio group as a substituent” (Santen Pharmaceutical Co., Ltd., priority 2003, dated 2013)
